We go through two substances from patent US9409975B2, “Antibody binding microbial heparin binding motif to retard or prevent microbial biofilm formation on implanted medical devices” (priority 2012, dated 2016).

This assay has as its system C. albicans. The assay is described as follows: Heparin-binding ELISA assay: C. albicans binding to solid-phase heparin, desulfated heparin analogs, chondroitin sulfate or dermatan sulfate. The format is cell-based, Candida albicans. As to conditions: equimolar amounts with respect to heparin. As to the method: To measure the binding of C. albicans to solid-phase heparin, a heparin-binding ELISA assay was developed, as follows. A single colony of each C. albicans wild type or mutant strain from a YPD plate was inoculated into 3 ml YPD medium and incubated overnight at 30° C. with shaking at 225 rpm. Sigma heparin (fresh solution made daily), diluted to 25 units/ml in autoclaved, sterile-filtered PBS was added as 0.1 ml aliquots to each well of an allyl amine-coated 96-well heparin binding microtiter plate (BD Biosciences). The plate was incubated at room temperature overnight in the dark (50). In the morning, the plate was washed with acetate buffer (100 mM NaCl, […], 0.2% Tween 20, pH 7.2), incubated with 3% bovine serum albumin (BSA) in PBS at 30° C. for 1 hour, then washed with PBS. In the meantime, overnight cultures of C. albicans were subcultured by dilution to OD600 of 0.2 in 25 ml of YPD, and grown at 30° C. to mid-log phase (OD600 0.6-0.7). […] After 45 minutes, absorbance at 595 nm was read on a Beckman Coulter DTX 880. […]
The ELISA assay used a commercially available 96-well microtiter plate coated with polymerized allylamine (BD Biosciences) (27), in which wells were inoculated with 2.5 units (12.5 μg) heparin in 100 μl phosphate buffered saline (PBS) per well. […] The color change was read spectrophotometrically at absorbance of 595 nm.

With chondroitin sulfate, the “binding of C. albicans versus binding to heparin, in words” value is “equivalent”.
dermatan sulfate: the “binding of C. albicans versus binding to heparin, in words” value is “reduced”.
